# System: Peripheral blood mononuclear cells (PBMC)
# Test: Flow cytometric analysis of PBMC populations
# Format: in vivo, pig
# Protocol: Peripheral blood mononuclear cells (PBMC) were isolated from heparin-stabilized blood samples (5–8 mL) using Ficoll-Hypaque (PAA, Austria) density centrifugation as described elsewhere ([Saalmüller et al., 1987]). For flow cytometric (FCM) analysis PMBCs were labeled with monoclonal antibodies as indicated in Supplementary Table S1 and stained with the respective isotype-specific conjugates. For analysis of regulatory T cells, cells were fixed and permeabilized by using Foxp3 Staining Buffer Set (eBioscience) in accordance with the manufacturer‘s instructions or for B cells by a FormSap-F&P permeabilization and fixation protocol as described previously ([Gerner et al., 2008]; [Käser et al., 2008]). Samples were analyzed immediately after the final washing steps. Flow cytometric analyses were performed on a FACSCantoII (BD Bioscience). 50,000 events were collected for each sample. Data were analyzed using FACSDiva software 6.1.3 (BD Bioscience) and FlowJo software 7.6.
# Neg a tiv e c ontr ol - - - - Isoty p co ntr ol Ig G2b 1 Anti-Ig G2b-Alexa488 2 - - Isoty pe cont rol Isoty p co ntr ol Ig G 1 Anti-Ig G1-RPE 3 […]
# T he lp er ce lls Anti-CD4 (74-12-4; IgG2b) 4 Anti-Ig G2b-Alexa488 2 - - NK ce lls Anti-CD3 (PPT3; IgG1) 5 Anti-Ig G1-RPE 3 […]
smiles,measurement,setting,value
CC(C)C[C@H]1OC(=O)[C@H](C(C)C)NC(=O)[C@H](C(C)C)OC(=O)[C@@H](C)NC(=O)[C@@H](CC(C)C)OC(=O)[C@H](C(C)C)NC(=O)[C@H](C(C)C)OC(=O)[C@@H](C)NC(=O)[C@@H](CC(C)C)OC(=O)[C@H](C(C)C)NC(=O)[C@H](C(C)C)OC(=O)[C@@H](C)NC1=O [cereulide],Cell composition of PBMCs in comparison to control pigs,after oral administration of cereulide,no significant changes
same,Proportions of blood cell populations,daily oral dose 10 μg kg^-1 over 7 days,remained stable

# — paper PMC6234764, “First Insights Into Within Host Translocation of the Bacillus cereus Toxin Cereulide Using a Porcine Model” (Frontiers in Microbiology, 2018)
